These results are taken from patent US5356907A, “1-cycloalkylpyridones as analgesics” (priority 1989, dated 1994).

Assay [1] has as its system cardiac rhythm disorders. The assay is described as follows: Anti-arythmic action in the rat (aconitine perfusion). The settings on record: intravenous, 5 minutes before aconitine 10 micrograms/mn, anaesthetised male rat. In kind it is in vivo. On the procedure: 2) Anti-arythmic action in the rat
Male rate weighing 300-350 g anaesthetised by interperitonal route using 1.20 g/kg of urethane are tracheotomized and subjected to artificial respiration (40-50 insufflations of 3 ml/minute).
needles are implanted subcutaneously so as to record the rats' electrocardiogram on the DII derivation signal.
The test products are administered by intravenous route. Five minutes after administration of the product, the jugular vein is perfused with aconitine at the rate of 10 micrograms/mn and the time taken for the appearance of cardiac rhythm disorders is noted.
The results are expressed as a percentage of the increase in the time taken for cardiac rhythm disorders to appear relative to the controls and according to the dose of the test product.

The target of assay [2] is T1, opiated K Receptor (Cavia porcellus, UniProt P41144).
T1 construct: Membrane samples preserved at -30° C; (optionally for approximately 30 days) are used and prepared from guinea pig brains; from tissue; host or cells: guinea pig brain membranes
T1 sequence (P41144 whole entry): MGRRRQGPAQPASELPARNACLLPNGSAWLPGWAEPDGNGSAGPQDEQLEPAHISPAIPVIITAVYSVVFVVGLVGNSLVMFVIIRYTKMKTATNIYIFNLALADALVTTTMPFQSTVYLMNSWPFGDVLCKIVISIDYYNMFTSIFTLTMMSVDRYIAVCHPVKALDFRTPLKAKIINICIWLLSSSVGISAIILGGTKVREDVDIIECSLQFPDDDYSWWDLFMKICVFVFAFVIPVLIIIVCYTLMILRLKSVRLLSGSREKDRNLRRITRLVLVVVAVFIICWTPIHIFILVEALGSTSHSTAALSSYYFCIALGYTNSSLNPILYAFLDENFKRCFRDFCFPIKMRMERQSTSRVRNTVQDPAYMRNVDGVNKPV
Description: Bonding to the opiated K Receptor in Vitro. The assay is classed as binding. The following applies: displacement of 1 nM 3H-ethylketocyclazocin, guinea pig brain membranes, Tris pH 7.7, 25° C., 40 minutes. On the procedure: 1) Bonding to the opiated K Receptor in Vitro
Membrane samples preserved at -30° C. (optionally for approximately 30 days) are used and prepared from guinea pig brains.
These samples are put in suspension in Tris pH 7.7 buffer. Fractions of 2 cm^3 are distributed in hemolysis tubes and 1 nM of 9^3 H-ethylketocyclazocin and the product to be studied are added. The product is first tested at 5×10^-6 M (in triplicate). When the test product displaces more than 50% of the radioactivity linked specifically to the receptor, it is tested again according to a range of 7 doses so as to determine the dose that inhibits 50% of the radioactivity linked specifically to the receptor. Thus the 50% inhibiting concentration is determined.
The non-specific bond is determined by the addition of known product under the name U-50488 H (Lahti et al. 1982, Life Sci. 31, 2257) at 10^-5 M (in triplicate). After incubating at 25° C. for 40 minutes, returning to the water bath at 0° C. for 5 minutes, filtering under vacuum, rinsing with Tris pH 7.7 buffer, the radioactivity is counted in the presence of Trition scintillator.
The result is expressed directly as 50% inhibiting concentration (IC50), namely as the concentration of studied product expressed in nM, necessary to displace 50% of the radioactivity specifically fixed on the studied receptor.

`O=C1C(c2ccc(Cl)c(Cl)c2)CCCN1[C@@H]1CCCC[C@H]1N1CCCC1` (mixture of isomers) [Example 4, [Trans, (±)]-3-(3,4-dichlorophenyl)-1-[2-(1-pyrrolidinyl)-cyclohexyl]-2piperidinone]: the “Percentage increase in time (taken for cardiac rhythm disorders to appear relative to the controls)” value in assay [1] (dose 2.5 mg/kg, 2.5 mg/kg) is 23%; in assay [1] (dose 5 mg/kg, 5 mg/kg), 48%. Also, the IC50 (usually the concentration that inhibits the measured activity by half) in assay [2] came out at 22 nM.
In turn, `COc1ccc(C2C(=O)CCN([C@@H]3CCCC[C@H]3N3CCCC3)C2=O)cc1OC` (mixture of isomers) [Example 7, [Trans,(±)]-3-(3,4-dimethoxy-phenyl)-1-[2-(1-pyrrolidinyl)-cyclohexyl]-2,4-piperidinedione] had an IC50 in assay [2] of 0.2 nM. This counts as sub-nanomolar.
On to `O=C1C(c2ccc(Cl)c(Cl)c2)CCCN1[C@@H]1CCCC[C@H]1N1CCCC1` (mixture of isomers) [Example 5, [Trans, (±)]-3-(3,4-dichlorophenyl)-1-[2-(1-pyrrolidinyl)-cyclohexyl]-2-piperidinone], for which the “Percentage increase in time (taken for cardiac rhythm disorders to appear relative to the controls)” value in assay [1] (dose 2.5 mg/kg, 2.5 mg/kg) was 26%; in assay [1] (dose 5 mg/kg, 5 mg/kg), 33%.
Compound `COc1ccc(C2=CCCN([C@@H]3CCCC[C@H]3N3CCCC3)C2=O)cc1OC` (relative stereo) [Example 8, [Trans-(±)]-5,6-dihydro-3-(3,4-dimethoxyphenyl)-1-[2(1-pyrrolidinyl)-cyclohexyl]-2-[1H)-pyridinone] gave an IC50 in assay [2] of 9 nM.
As to `O=C1C(c2ccc(Cl)c(Cl)c2)=CCCN1[C@@H]1CCCC[C@H]1N1CCCC1` (relative stereo) [Example 3, [Trans, (±)]-3-(3,4-dichlorophenyl)-5,6-dihydro-1-[2-(1-pyrrolidinyl)cyclohexyl)-2-(1H)-pyridinone], the “Percentage increase in time (taken for cardiac rhythm disorders to appear relative to the controls)” value amounted to 52% in assay [1] (dose 2.5 mg/kg) and 55% in assay [1] (dose 5 mg/kg).
